Laboratory results taken from ChEMBL document CHEMBL1201862, “PubChem BioAssay data set” (2004).
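Cultured in 96-well plates, cells were exposed to test compound for 48 hours across five concentrations. The concentration for 50% growth inhibition is given as GI50.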 Active and inactive are the calls of the source. Cut-off read from the data, not from the text of the source: active = GI50 up to about 1.1 µM and inactive = higher.

Columns and labels:
Assay in all cases: NCI tumour cell line growth inhibition, 48 h
XF498 = tested on: XF498
DMS-273 = tested on: DMS-273
KM-20L2 = tested on: KM-20L2
DLD-1 = tested on: DLD-1
LXFL 529 = tested on: LXFL 529
HOP-18 = tested on: HOP-18
RXF 631 = tested on: RXF 631
T47D = tested on: T47D
BT-549 = tested on: BT-549

Measured: GI50

COc1ccc2c(c1)[n+]([O-])c(-c1ccc(OC)c(OC)c1)c(N)[n+]2[O-]
inactive: XF498 > 100 µM | DMS-273 61.5 µM | KM-20L2 42 µM | DLD-1 78.9 µM | LXFL 529 49.8 µM | HOP-18 43.7 µM

C[Si](C)(C)/C=C\CCCN1C(=O)CCC1=O
inactive: XF498 > 100 µM | RXF 631 > 100 µM | KM-20L2 > 100 µM | LXFL 529 > 100 µM

CCOC(=O)C(=Cc1cc(OC)ccc1OC)C(=O)OCC
inactive: XF498 11.2 µM | RXF 631 5.81 µM | DMS-273 3.75 µM | KM-20L2 2.21 µM | DLD-1 8.41 µM | LXFL 529 3.26 µM | HOP-18 11.4 µM

Cc1cc2c(c(C(=O)O)c1C)-c1cccc(F)c1C2=O
inactive: XF498 > 100 µM | RXF 631 > 100 µM | DMS-273 > 100 µM | KM-20L2 > 100 µM | DLD-1 > 100 µM | LXFL 529 > 100 µM

O=C(O)c1cc2c(s1)C(=O)c1sccc1C2=O
inactive: XF498 20.9 µM | DMS-273 10.9 µM | KM-20L2 19.2 µM | DLD-1 14.4 µM | T47D 4.97 µM | BT-549 1.91 µM | HOP-18 5.52 µM

O=C(CC1(O)C(=O)Nc2ccc([N+](=O)[O-])cc21)c1ccncc1 (configuration not stated)
inactive: XF498 15.3 µM | RXF 631 20.7 µM | KM-20L2 76.4 µM | DLD-1 37.4 µM | HOP-18 27.8 µM

CC(c1ccccc1)C(O)S(=O)(=O)O (configuration not stated)
inactive: XF498 > 100 µM | RXF 631 > 100 µM | DMS-273 > 100 µM | KM-20L2 > 100 µM | LXFL 529 > 100 µM | HOP-18 > 100 µM

CC(=O)NS(=O)(=O)c1ccc(NC(=O)COC(=O)c2cccc3c(=O)c4ccccc4[nH]c23)cc1
inactive: XF498 > 100 µM | DMS-273 > 100 µM | HOP-18 > 100 µM

CCCCNc1nc(C#N)c(N)s1
inactive: XF498 > 100 µM | RXF 631 > 100 µM | DMS-273 > 100 µM | KM-20L2 > 100 µM | DLD-1 > 100 µM | LXFL 529 > 100 µM

Cc1cc([N+](=O)[O-])ccc1NC(=O)C(=O)C(C(=O)c1ccccc1-c1ccccc1)C1OC(=O)c2ccccc21 (configuration not stated)
inactive: XF498 5.93 µM | RXF 631 4.75 µM | DMS-273 4.99 µM | KM-20L2 3.48 µM | LXFL 529 15.6 µM | HOP-18 14.2 µM

N#Cc1cccc(NC(=O)c2ccc(C(=O)O)c(C(=O)c3ccc(C(=O)O)c(C(=O)Nc4cccc(C#N)c4)c3)c2)c1
inactive: XF498 > 100 µM | DMS-273 > 100 µM | KM-20L2 > 100 µM | DLD-1 > 100 µM | LXFL 529 > 100 µM | HOP-18 > 100 µM

COC(=O)C(=O)C(C(=O)C(=O)Nc1ccc(OC)cc1[N+](=O)[O-])c1nc2ccc([N+](=O)[O-])cc2nc1O (configuration not stated)
inactive: XF498 > 100 µM | KM-20L2 > 100 µM | DLD-1 > 100 µM | LXFL 529 > 100 µM | HOP-18 > 100 µM
